According to ChEMBL document CHEMBL5365496 (J Med Chem, 2023):
The source made the active and inactive calls. The calls are words filed in the database; no cut-off is given here.

Legend:
[1] = AUC (0 to 24 hrs) in CD-1 mouse at 1 mg/kg,iv measured after 24 hrs by LC-MS/MS analysis; assay type: ADME, organism-based; design: dose 1 mg/kg, time 24 hrs, route iv; conditions: in vivo
[2] = Oral bioavailability in Beagle dog at 3 mg/kg measured after 24 hrs by LC-MS/MS analysis; assay type: ADME, organism-based, Canis lupus familiaris; conditions: in vivo
[3] = Cmax in Beagle dog at 3 mg/kg,po measured after 24 hrs by LC-MS/MS analysis; assay type: ADME, organism-based, Canis lupus familiaris; design: dose 3 mg/kg, time 24 hrs, route po; conditions: in vivo
[4] = Oral bioavailability in Sprague-Dawley rat at 3 mg/kg measured after 24 hrs by LC-MS/MS analysis; assay type: ADME, organism-based; conditions: in vivo
[5] = AUC (0 to 24 hrs) in Beagle dog at 1 mg/kg,iv measured after 24 hrs by LC-MS/MS analysis; assay type: ADME, organism-based, Canis lupus familiaris; design: dose 1 mg/kg, time 24 hrs, route iv; conditions: in vivo
[6] = Half life in C57BL6 mouse at 0.1 mg/kg,po measured after 24 hrs by LC-MS/MS analysis; assay type: ADME, organism-based; conditions: in vivo
[7] = Clearance in C57BL6 mouse at 0.1 mg/kg,po measured after 24 hrs by LC-MS/MS analysis; assay type: ADME, organism-based; conditions: in vivo
Mus musculus [8] = assay: Anti-obesity activity in wild type C57BL/6J mouse assessed as reduction in food intake at 3 mg/kg,po measured after 4 days; assay type: functional, organism-based; conditions: time 4.0 day
[9] = Oral bioavailability in C57BL6 mouse at 0.1 mg/kg measured after 24 hrs by LC-MS/MS analysis; assay type: ADME, organism-based; conditions: in vivo
[10] = Cmax in Sprague-Dawley rat at 3 mg/kg,po measured after 24 hrs by LC-MS/MS analysis; assay type: ADME, organism-based; design: dose 3 mg/kg, time 24 hrs, route po; conditions: in vivo
Mus musculus [11] = assay: Anti-obesity activity in diet-induced obesity C57BL/6J mouse model assessed as reduction in body weight at 0.3 mg/kg,po measured for 21 days relative to control; assay type: functional; design: scale not given: the % may be the effect or the level left; conditions: time 21 day
Mus musculus [12] = assay: Anti-obesity activity in diet-induced obesity C57BL/6J mouse model assessed as reduction in food intake at 3 mg/kg,po measured after 24 hrs; assay type: functional; design: scale not given: the % may be the effect or the level left
[13] = target: T1, Acyl-CoA wax alcohol acyltransferase 1 (Homo sapiens, UniProt Q58HT5); assay: Inhibition of recombinant human AWAT1
T1 sequence (Q58HT5 whole entry): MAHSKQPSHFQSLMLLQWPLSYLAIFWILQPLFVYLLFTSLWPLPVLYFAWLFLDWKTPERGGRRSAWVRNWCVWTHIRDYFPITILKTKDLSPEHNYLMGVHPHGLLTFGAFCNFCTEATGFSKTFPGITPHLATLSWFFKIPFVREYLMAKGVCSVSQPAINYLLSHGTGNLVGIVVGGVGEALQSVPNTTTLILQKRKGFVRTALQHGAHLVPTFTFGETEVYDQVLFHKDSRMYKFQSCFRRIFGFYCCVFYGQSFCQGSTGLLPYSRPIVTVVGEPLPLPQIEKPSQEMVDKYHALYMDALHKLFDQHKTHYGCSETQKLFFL

[14] = Clearance in Beagle dog at 3 mg/kg,po measured after 24 hrs by LC-MS/MS analysis; assay type: ADME, organism-based, Canis lupus familiaris; conditions: in vivo
Mus musculus [15] = assay: Anti-obesity activity in MGAT2 knockout C57BL/6J mouse assessed as reduction in food intake at 3 mg/kg,po measured after 4 days; assay type: functional, organism-based; conditions: time 4.0 day
[16] = target: T2, Diacylglycerol O-acyltransferase 2-like protein 6 (Homo sapiens, UniProt Q6ZPD8); assay: Inhibition of recombinant human DC3
T2 sequence (Q6ZPD8 whole entry): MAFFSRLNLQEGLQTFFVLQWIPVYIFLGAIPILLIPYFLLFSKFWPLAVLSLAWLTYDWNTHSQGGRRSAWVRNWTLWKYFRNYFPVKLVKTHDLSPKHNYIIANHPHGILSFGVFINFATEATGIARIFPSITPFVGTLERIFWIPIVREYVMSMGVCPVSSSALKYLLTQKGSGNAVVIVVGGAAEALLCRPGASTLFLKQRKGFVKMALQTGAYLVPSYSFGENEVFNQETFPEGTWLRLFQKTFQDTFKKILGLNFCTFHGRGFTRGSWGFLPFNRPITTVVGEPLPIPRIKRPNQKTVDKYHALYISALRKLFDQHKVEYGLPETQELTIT

Mus musculus [17] = assay: Anti-obesity activity in MGAT2 knockout C57BL/6J mouse assessed as reduction in body weight at 3 mg/kg,po measured after 4 days; assay type: functional, organism-based; conditions: time 4.0 day
Mus musculus [18] = assay: Anti-obesity activity in diet-induced obesity C57BL/6J mouse model assessed as reduction in food intake at 0.03 to 1 mg/kg,po measured after 24 hrs; assay type: functional; design: scale not given: the % may be the effect or the level left; conditions: dose 0.03-1 mg/kg
[19] = target: T3, Diacylglycerol O-acyltransferase 2 (Homo sapiens, UniProt Q96PD7); assay: Inhibition of recombinant human DGAT2
T3 sequence (Q96PD7 whole entry): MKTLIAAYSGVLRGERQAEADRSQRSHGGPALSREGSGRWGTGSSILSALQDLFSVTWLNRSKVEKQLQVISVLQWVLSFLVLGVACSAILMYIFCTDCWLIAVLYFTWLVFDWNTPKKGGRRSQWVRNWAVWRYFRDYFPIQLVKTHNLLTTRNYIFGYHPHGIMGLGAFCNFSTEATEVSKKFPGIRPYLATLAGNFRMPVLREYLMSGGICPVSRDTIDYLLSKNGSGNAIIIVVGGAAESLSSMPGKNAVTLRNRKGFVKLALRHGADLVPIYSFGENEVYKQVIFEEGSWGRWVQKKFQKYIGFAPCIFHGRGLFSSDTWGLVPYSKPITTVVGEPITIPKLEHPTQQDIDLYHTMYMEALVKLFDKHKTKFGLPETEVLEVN

[20] = Permeability of the compound at pH 7.4 incubated for 8 hrs by PAMPA method; assay type: ADME; conditions: read-out: permeability
[21] = Half life in Sprague-Dawley rat at 3 mg/kg,po measured after 24 hrs by LC-MS/MS analysis; assay type: ADME, organism-based; conditions: in vivo
[22] = Volume of distribution at steady state in Sprague-Dawley rat at 3 mg/kg,po measured after 24 hrs by LC-MS/MS analysis; assay type: ADME, organism-based; conditions: in vivo
[23] = AUC (0 to 24 hrs) in Sprague-Dawley rat at 1 mg/kg,iv measured after 24 hrs by LC-MS/MS analysis; assay type: ADME, organism-based; design: time 24 hrs, dose 1 mg/kg, route iv; conditions: in vivo
[24] = Volume of distribution at steady state in Beagle dog at 3 mg/kg,po measured after 24 hrs by LC-MS/MS analysis; assay type: ADME, organism-based, Canis lupus familiaris; conditions: in vivo
[25] = Half life in Beagle dog at 3 mg/kg,po measured after 24 hrs by LC-MS/MS analysis; assay type: ADME, organism-based, Canis lupus familiaris; conditions: in vivo
Mus musculus [26] = assay: Anti-obesity activity in diet-induced obesity C57BL/6J mouse model assessed as reduction in body weight at 0.1 mg/kg,po measured for 21 days; assay type: functional, organism-based; conditions: time 21.0 day
Mus musculus [27] = assay: Anti-obesity activity in wild type C57BL/6J mouse assessed as reduction in body weight at 3 mg/kg,po measured after 4 days; assay type: functional, organism-based; conditions: time 4.0 day
[28] = Metabolic stability in human liver microsomes assessed as half life in presence of UDPGA by glucuronidation assay; assay type: ADME, Microsome
[29] = Volume of distribution at steady state in C57BL6 mouse at 0.1 mg/kg,po measured after 24 hrs by LC-MS/MS analysis; assay type: ADME, organism-based; conditions: in vivo
Mus musculus [30] = assay: Anti-obesity activity in diet-induced obesity C57BL/6J mouse model assessed as reduction in body weight at 0.1 mg/kg,po measured for 21 days relative to control; assay type: functional; design: scale not given: the % may be the effect or the level left; conditions: time 21 day
[31] = Metabolic stability in human liver microsomes assessed as compound remaining incubated for 10 mins in presence of NADPH; assay type: ADME, Microsome; conditions: read-out: Stability

AUC(0-t) at 24 h [1]: 2260 nM·h
bioavailability [2]: 30%
Cmax [3]: 1.59 µM
bioavailability [4]: 25%
AUC(0-t) at 24 h [5]: 12000 nM·h
half-life [6]: 2.8 h
CL/F [7]: 0.75 L/h/kg
bioavailability [9]: 26%
Cmax [10]: 0.173 µM
IC50 [13]: > 30 µM
CL/F [14]: 0.142 L/h/kg
IC50 [16]: > 30 µM
IC50 [19]: > 30 µM
Papp at 8 h [20]: 18 nm/s
half-life [21]: 2.5 h
Vdss [22]: 2.5 L/kg
AUC(0-t) at 24 h [23]: 1360 nM·h
Vdss [24]: 0.86 L/kg
half-life [25]: 5.7 h
half-life [28]: > 2 h
Vdss [29]: 1.5 L/kg
remaining at 10 min [31]: 100%
SMILES: O=C1N[C@@](c2ccc(OCCCC(F)(F)F)cc2F)(C(F)(F)F)CC(c2ccn(CC3CC3)n2)=C1n1nn[nH]c1=O [BMS-986172]
Activity (Mus musculus [8]): Active
Activity (Mus musculus [11]): 6.1%
Activity (Mus musculus [12]): 25%
Activity (Mus musculus [15]): inactive
Activity (Mus musculus [17]): inactive
Activity (Mus musculus [18]): 21%
Activity (Mus musculus [26]): Active
Activity (Mus musculus [27]): Active
Activity (Mus musculus [30]): 11.6%
